Target: T1, HCMV polymerase (Human cytomegalovirus, UniProt P08546)
T1 construct: made in house; host or cells: recombinant baculovirus-infected SF-9 insect cells
Test: biochemical
Conditions: HCMV polymerase; SPA; modified assay: compounds in 100% DMSO, 4.5 mM DTT
Method: The HCMV polymerase assay is performed using a scintillation proximity assay (SPA) as described in several references, such as N. D. Cook, et al., Pharmaceutical Manufacturing International, pages 49-53 (1992); K. Takeuchi, Laboratory Practice, September issue (1992); U.S. Pat. No. 4,568,649 (1986); which are incorporated by reference herein. Reactions are performed in 96-well plates. The assay is conducted in 100 μl volume with 5.4 mM HEPES (pH 7.5), 11.7 mM KCl, 4.5 mM MgCl2, 0.36 mg/ml BSA, and 90 nM ^3 H-dTTP. Assays are run with and without CHAPS, (3-[(3-Cholamidopropyl)dimethylammonio]-1-propane-sulfonate) at a final concentration of 2 mM. HCMV polymerase is diluted in enzyme dilution buffer containing 50% glycerol, 250 mM NaCl, 10 mM HEPES (pH 7.5), 100 μg/ml BSA, and 0.01% sodium azide. The HCMV polymerase, which is expressed in recombinant baculovirus-infected SF-9 cells and purified according to literature procedures, is added at 10% (or 10 μl) of the final reaction volume, i.e., 100 μl. Compounds are diluted in 50% DMSO and 10 μl are added to each well. Control wells contain an equivalent concentration of DMSO. Unless noted otherwise, reactions are initiated via the addition of 6 nM biotinylated poly(dA)-oligo(dT) template/primer to reaction mixtures containing the enzyme, substrate, and compounds of interest. Plates are incubated in a 25 C. or 37 C. H2 O bath and terminated via the addition of 40 μl/reaction of 0.5 M EDTA (pH 8) per well. Reactions are terminated within the time-frame during which substrate incorporation is linear and varied depending upon the enzyme and conditions used, i.e., 30 min. for HCMV polymerase. Ten μl of streptavidin-SPA beads (20 mg/ml in PBS/10% glycerol) are added following termination of the reaction. Plates are incubated 10 min. at 37 C., then equilibrated to room temperature, and counted on a Packard Topcount. Linear regressions are performed and IC50 's are calculated using computer software.
A modified version of the above HCMV polymerase assay is performed as described above, but with the following changes: Compounds are diluted in 100% DMSO until final dilution into assay buffer. In the previous assay, compounds are diluted in 50% DMSO. 4.5 mM dithiotherotol (DTT) is added to the polymerase buffer.

T1 sequence (P08546 whole entry): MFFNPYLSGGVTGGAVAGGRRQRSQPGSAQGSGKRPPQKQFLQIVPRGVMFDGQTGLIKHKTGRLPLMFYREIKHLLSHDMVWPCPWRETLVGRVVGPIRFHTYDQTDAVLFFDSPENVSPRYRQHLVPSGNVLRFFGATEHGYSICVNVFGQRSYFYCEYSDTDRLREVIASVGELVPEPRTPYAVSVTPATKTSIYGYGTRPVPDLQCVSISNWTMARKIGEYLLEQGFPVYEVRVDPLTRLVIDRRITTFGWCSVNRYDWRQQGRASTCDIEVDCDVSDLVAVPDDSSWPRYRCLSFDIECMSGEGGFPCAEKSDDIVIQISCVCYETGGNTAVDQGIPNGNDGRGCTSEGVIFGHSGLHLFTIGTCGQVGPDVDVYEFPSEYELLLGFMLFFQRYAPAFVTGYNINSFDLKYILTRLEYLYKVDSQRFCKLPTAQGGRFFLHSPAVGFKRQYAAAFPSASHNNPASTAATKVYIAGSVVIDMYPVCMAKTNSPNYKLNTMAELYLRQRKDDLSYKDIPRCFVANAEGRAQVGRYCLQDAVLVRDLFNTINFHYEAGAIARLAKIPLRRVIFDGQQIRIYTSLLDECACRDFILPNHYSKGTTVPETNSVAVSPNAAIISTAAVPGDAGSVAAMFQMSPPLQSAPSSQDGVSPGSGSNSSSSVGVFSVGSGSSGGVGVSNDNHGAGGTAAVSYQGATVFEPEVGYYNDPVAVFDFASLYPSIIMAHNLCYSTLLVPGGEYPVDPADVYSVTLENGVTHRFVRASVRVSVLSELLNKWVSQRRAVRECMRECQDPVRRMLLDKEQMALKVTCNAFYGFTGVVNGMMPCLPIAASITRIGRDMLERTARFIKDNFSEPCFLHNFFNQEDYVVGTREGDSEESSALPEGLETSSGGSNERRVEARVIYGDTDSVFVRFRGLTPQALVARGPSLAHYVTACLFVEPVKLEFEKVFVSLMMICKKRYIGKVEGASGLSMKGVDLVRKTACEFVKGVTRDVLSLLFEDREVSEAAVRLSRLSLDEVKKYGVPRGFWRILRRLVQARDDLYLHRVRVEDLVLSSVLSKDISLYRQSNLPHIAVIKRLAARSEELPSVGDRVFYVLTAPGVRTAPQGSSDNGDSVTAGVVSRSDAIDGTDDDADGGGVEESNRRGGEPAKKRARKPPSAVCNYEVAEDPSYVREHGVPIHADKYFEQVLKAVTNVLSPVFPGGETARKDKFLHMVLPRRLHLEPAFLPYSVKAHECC

## CCOCCOCCn1cc(C(=O)NCc2ccc(Cl)cc2)c(=O)c2cc(CN3CCOCC3)ccc21 [Example 58, N-(4-Chlorobenzyl)-1-[2-(2-ethoxyethoxy)ethyl]-6-(4-morpholinylmethyl)-4-oxo-1,4-dihydro-3-quinolinecarboxamide]
  IC50: 1.4 µM

## C#CCn1cc(C(=O)NCc2ccc(Cl)cc2)c(=O)c2cc(CN3CCOCC3)ccc21 [Example 59, N-(4-Chlorobenzyl)-6-(4-morpholinylmethyl)-4-oxo-1-(2-propynyl)-1,4-dihydro-3-quinolinecarboxamide]
  IC50: 1.9 µM

## CCSCCn1cc(C(=O)NCc2ccc(Cl)cc2)c(=O)c2cc(CN3CCOCC3)ccc21 [Example 60, N-(4-Chlorobenzyl)-1-[2-(ethylsulfanyl)ethyl]-6-(4-morpholinylmethyl)-4-oxo-1,4-dihydro-3-quinolinecarboxamide]
  IC50: 1.1 µM

## CN(Cc1ccc2c(c1)c(=O)c(C(=O)NCc1ccc(Cl)cc1)cn2C)CC(O)c1ccccc1 (centres unmarked) [Example 63, N-(4-Chlorobenzyl)-6-{[(2-hydroxy-2-phenylethyl)(methyl)-amino]methyl}-1-methyl-4-oxo-1,4-dihydro-3quinolinecarboxamide]
  IC50: 1.3 µM

## O=C(NCc1ccc(Cl)cc1)c1cn(CCN(CCO)CCO)c2ccc(CN3CCOCC3)cc2c1=O [Example 64]
  IC50: 0.95 µM

## O=C(NCc1ccc(Cl)cc1)c1cn(CCCSCCCO)c2ccc(CN3CCOCC3)cc2c1=O [Example 66, N-(4-Chlorobenzyl)-1-{3-[(3-hydroxypropyl)sulfanyl]propyl}-6-(4-morpholinylmethyl)-4-oxo-1,4-dihydro-3-quinolinecarboxamide]
  IC50: 1.1 µM

## CS(=O)(=O)CCCn1cc(C(=O)NCc2ccc(Cl)cc2)c(=O)c2cc(CN3CCOCC3)ccc21 [Example 67, N-(4-Chlorobenzyl)-1-[3-(methylsulfonyl)propyl]-6-(4-morpholinylmethyl)-4-oxo-1,4dihydro-3-quinolinecarboxamide]
  IC50: 0.7 µM

## CC[S+]([O-])CCn1cc(C(=O)NCc2ccc(Cl)cc2)c(=O)c2cc(CN3CCOCC3)ccc21 (centres unmarked) [Example 68, N-(4-Chlorobenzyl)-1-[2-(ethylsulfinyl)ethyl]-6-(4-morpholinylmethyl)-4-oxo-1,4-dihydro-3-quinolinecarboxamide]
  IC50: 0.93 µM

## CCS(=O)(=O)CCn1cc(C(=O)NCc2ccc(Cl)cc2)c(=O)c2cc(CN3CCOCC3)ccc21 [Example 69, N-(4-Chlorobenzyl)-1-[2-(ethylsulfonyl)ethyl]-6-(4-morpholinylmethyl)-4-oxo-1,4-dihydro-3-quinolinecarboxamide]
  IC50: 0.9 µM

## O=C(NCc1ccc(Cl)cc1)c1cn(CCC[S+]([O-])CCCO)c2ccc(CN3CCOCC3)cc2c1=O (centres unmarked) [Example 70]
  IC50: 0.87 µM

## O=C(NCc1ccc(Cl)cc1)c1cn(CCCS(=O)(=O)CCCO)c2ccc(CN3CCOCC3)cc2c1=O [Example 71, N-(4-Chlorobenzyl)-1-(3-[(3-hydroxypropyl)sulfonyl]propyl)-6-(4-morpholinylmethyl)-4-oxo-1,4-dihydro-3-quinolinecarboxamide]
  IC50: 0.8 µM

## O=C(NCc1ccc(Cl)cc1)c1cn(CCSc2ccccc2)c2ccc(CN3CCOCC3)cc2c1=O [Example 72]
  IC50: 3 µM

## CSCn1cc(C(=O)NCc2ccc(Cl)cc2)c(=O)c2cc(CN3CCOCC3)ccc21 [Example 73]
  IC50: 1.1 µM

## Cn1cc(C(=O)NCc2ccc(Cl)cc2)c(=O)c2cc(CN3CC(O)(O)C3)ccc21 [Example 78, N-(4-Chlorobenzyl)-6-[(3,3-dihydroxy-1-azetidinyl)methyl]-1-methyl-4-oxo-1,4-dihydro-3-quinolinecarboxamide]
  IC50: 0.27 µM

## C[S+]([O-])Cn1cc(C(=O)NCc2ccc(Cl)cc2)c(=O)c2cc(CN3CCOCC3)ccc21 (centres unmarked) [Example 79, N-(4-Chlorobenzyl)-1-[(methylsulfinyl)methyl]-6-(4-morpholinylmethyl)-4-oxo-1,4-dihydro-3-quinolinecarboxamide]
  IC50: 1.1 µM

## CS(=O)(=O)Cn1cc(C(=O)NCc2ccc(Cl)cc2)c(=O)c2cc(CN3CCOCC3)ccc21 [Example 80, N-(4-Chlorobenzyl)-1-[(methylsulfonyl)methyl]-6-(4-morpholinylmethyl)-4-oxo-1,4-dihydro-3-quinolinecarboxamide]
  IC50: 1.1 µM

## O=C(NCc1ccc(Cl)cc1)c1cn(C[S+]([O-])c2ccccc2)c2ccc(CN3CCOCC3)cc2c1=O (centres unmarked) [Example 81, N-(4-Chlorobenzyl)-6-(4-morpholinylmethyl)-4-oxo-1-[(phenylsulfinyl)methyl]-1,4-dihydro-3-quinolinecarboxamide]
  IC50: 0.35 µM

## O=C(NCc1ccc(Cl)cc1)c1cn(CS(=O)(=O)c2ccccc2)c2ccc(CN3CCOCC3)cc2c1=O [Example 82, N-(4-Chlorobenzyl)-6-(4-morpholinylmethyl)-4-oxo-1-[(phenylsulfonyl)methyl]-1,4-dihydro-3-quinolinecarboxamide]
  IC50: 0.53 µM

## COCCOCCn1cc(C(=O)NCc2ccc(Cl)cc2)c(=O)c2cc(CCCO)ccc21 [Example 83, N-(4-chlorobenzyl)-6-(3-hydroxypropyl)-1-[2-(2-methoxyethoxy)ethyl]-4-oxo-1,4-dihydro-3-quinolinecarboxamide]
  IC50: 0.6 µM

## COCCOCCn1cc(C(=O)NCc2ccc(Cl)cc2)c(=O)c2cc(CN3CCOCC3)ccc21 [Example 84]
  IC50: 1.2 µM

## COCCOCCn1cc(C(=O)NCc2ccc(Cl)cc2)c(=O)c2cc(CN3CCC(=O)CC3)ccc21 [Example 85, N-(4-Chlorobenzyl)-1-[2-(2-methoxyethoxy)ethyl]-4-oxo-6-[(4-oxo-1-piperidinyl)methyl]-1,4-dihydro-3-quinolinecarboxamide]
  IC50: 6 µM

## COCCOCCn1cc(C(=O)NCc2ccc(Cl)cc2)c(=O)c2cc(CN(C)CC#N)ccc21 [Example 86, N-(4-Chlorobenzyl)-6-{[(cyanomethyl)(methyl)amino]methyl}-1-[2-(2-methoxyethoxy)ethyl]-4-oxo-1,4-dihydro-3-quinolinecarboxamide]
  IC50: 2.5 µM

## COCCOCCn1cc(C(=O)NCc2ccc(Cl)cc2)c(=O)c2cc(CN3CC[C@@H](O)C3)ccc21 [Example 87, N-(4-Chlorobenzyl)-6-{[(3R)-3-hydroxypyrrolidinyl]methyl}-1-[2-(2-methoxyethoxy)ethyl]-4-oxo-1,4-dihydro-3-quinolinecarboxamide]
  IC50: 4 µM

## COCCOCCn1cc(C(=O)NCc2ccc(Cl)cc2)c(=O)c2cc(CN(C)[C@H](C)[C@@H](O)c3ccccc3)ccc21 [Example 88, N-(4-Chlorobenzyl)-6-{[[(1R,2S)-2-hydroxy-1-methyl-2-phenylethyl](methyl)amino]methyl}-1-[2-(2-methoxyethoxy)ethyl]-4-oxo-1,4-dihydro-3-quinolinecarboxamide]
  IC50: 5.9 µM

## COCCOCCn1cc(C(=O)NCc2ccc(Cl)cc2)c(=O)c2cc(CN(C)CC(O)c3ccccc3)ccc21 (centres unmarked) [Example 89, N-(4-Chlorobenzyl)-6-{[(2-hydroxy-2-phenylethyl)(methyl)amino]methyl}-1-[2-(2-methoxyethoxy)ethyl]-4-oxo-1,4-dihydro-3-quinoline-carboxamide]
  IC50: 6.7 µM

## COCCOCCn1cc(C(=O)NCc2ccc(Cl)cc2)c(=O)c2cc(CN(C)CC(O)c3ccc(O)cc3)ccc21 (centres unmarked) [Example 90, N-(4-Chlorobenzyl)-6-{[[2-hydroxy-2-(4-hydroxyphenyl)ethyl](methyl)amino]methyl}-1-[2-(2-methoxyethoxy)ethyl]-4-oxo-1,4-dihydro-3-quinolinecarboxamide]
  IC50: 4.4 µM

Reference: US6248739A, “Quinolinecarboxamides as antiviral agents” (Pharmacia & Upjohn Company, priority 1999, dated 2001)
